Tests used:
[1] = Inhibition of human recombinant N-His-tagged carbonic anhydrase 11 expressed in HEK293T cells using p-nitrophenyl acetate as substrate measured after 30 mins by colorimetric analysis
Carbonic anhydrase 2 = Carbonic anhydrase 2 (Homo sapiens, UniProt P00918); experiment: Inhibition of human recombinant N-HA-tagged carbonic anhydrase 2 expressed in HEK293T cells using p-nitrophenyl acetate as substrate measured after 30 mins by colorimetric analysis

| IC50 [1] [nM] | IC50 (Carbonic anhydrase 2) [nM] | SMILES |
| --- | --- | --- |
| 280 | 500 | Cc1ccc(S(=O)(=O)Oc2ccc(-c3ccc4occc4c3)cc2)cc1 |
| 1770 | 3300 | Cc1ccc(S(=O)(=O)Oc2ccc(-c3ccc4sccc4c3)cc2)cc1 |
| 690 | 1620 | CCCS(=O)(=O)Oc1ccc(-c2ccc3occc3c2)cc1 |
| 640 | 1040 | CNS(=O)(=O)Oc1ccc(-c2ccc3occc3c2)cc1 |
| 140 | 1300 | CCS(=O)(=O)Oc1ccc(-c2ccc3sccc3c2)cc1 |
| 7550 | 310 | CCCS(=O)(=O)Oc1ccc(-c2ccc3sccc3c2)cc1 |
| 850 | 410 | O=S(=O)(Oc1ccc(-c2ccc3occc3c2)cc1)c1ccccc1 |
| 1710 | 1230 | CN(C)S(=O)(=O)Oc1ccc(-c2ccc3occc3c2)cc1 |
| 2840 | 5820 | CN(C)S(=O)(=O)Oc1ccc(-c2ccc3sccc3c2)cc1 |
| 2700 | 1490 | O=S(=O)(Oc1ccc(-c2ccc3sccc3c2)cc1)c1ccccc1 |
| 520 | 1210 | CNS(=O)(=O)Oc1ccc(-c2ccc3sccc3c2)cc1 |
| 2170 | 2130 | CS(=O)(=O)Oc1ccc(-c2ccc3occc3c2)cc1 |
| 1010 | 1500 | CS(=O)(=O)Oc1ccc(-c2ccc3sccc3c2)cc1 |
| 1110 | 2600 | NS(=O)(=O)Oc1ccc(-c2ccc3occc3c2)cc1 |
| 130 | 1600 | CCS(=O)(=O)Oc1ccc(-c2ccc3occc3c2)cc1 |
| 1600 | 140 | O=S(=O)(Oc1ccc(-c2ccc3occc3c2)cc1)c1ccc(F)cc1 |
| 3100 | 2100 | O=S(=O)(Oc1ccc(-c2ccc3sccc3c2)cc1)c1ccc(F)cc1 |
| 240 | 1320 | NS(=O)(=O)Oc1ccc(-c2ccc3sccc3c2)cc1 |
